Results from patent US12390472B2 (SUZHOU SINOVENT PHARMACEUTICALS CO., LTD., priority 2018, dated 2025).
Like-named read-outs stand apart in the source and are kept apart here.

Columns and labels:
EZH2 enzyme complex = EZH2 enzyme complex (Homo sapiens (Human), UniProt Q15910); test: Test on EZH2 inhibitory activity (TR-FRET); assay type: biochemical; conditions: EZH2 enzyme complex 25 ng/uL, histone H3 peptide 4 uM, SAM 2 uM, 300 min; read-out: IC50 of EZH2 inhibition
Procedure: • EZH2 enzyme complex: 25 ng/uL • Histone H3 peptide substrate: 4 uM • SAM: 2 uM • Reaction time: 300 min Procedures • 1. Each compound disclosed herein was diluted with 1×HMT buffer and transferred to a 384-well assay plate at 3 uL per well; • 2. The EZH2 enzyme solution was prepared with 1×HMT buffer and transferred to the 384-well assay plate at 2 uL per well; • 3. The above assay plate was incubated for 30 min; • 4. A mixture solution of SAM and histone H3 peptide substrate at 2-fold concentration was prepared with 4×HMT buffer; • 5. 5 uL of the mixture solution of SAM and substrate was added to each well of the assay plate to react at room temperature, and the assay plate was sealed with plastic; • 6. After incubation for 5 h, 10 uL of TR-FRET detection buffer containing Tb-labeled antibody and dye-labeled receptor was added to each well of the assay plate; • 7. After incubation for 1 h at room temperature, the assay plate was detected; • 8.

WSU-DLCL2 = test: Methylated lysine of histone-H3 (H3K27Me3) detection by ELISA, WSU-DLCL2 cells; assay type: cell-based; conditions: WSU-DLCL2, 7 days treatment, H3K27Me3 normalized to total histone-3, read-out: IC50 of cell methylation, WSU-DLCL2
Procedure: (§1) The operations for adherent cells and suspension cells cultured in 96-well plates were slightly different after they had been treated with compound (4-fold dilution 20 uM-0.009 nM, 3 duplicate wells) for 7 days, and the operations are summarized as follows: For adherent cells, after discarding the medium, 75 uL of 1-fold hypotonic lysis buffer (10 mM Tris-HCl, pH 7.5, containing halt protease inhibitor and PMSF with a final concentration of 1 mM) was added; the plate was frozen at −80° C. for at least 1 h or overnight; once the plate was taken away from the −80° C. environment, 120 uL (to a final volume of about 195 uL) of 1-fold hypotonic lysis buffer (containing protease inhibitor) was added, and the plate was thawed at room temperature and shaken for 2 min for mixing; and 8 uL (to a final volume of about 203 uL) of 2.5 M NaCl was added to each well to a final NaCl concentration of 100 mM and then the plate was shaken for an additional 2 min for mixing.
(§2) For suspension cells (final volume of medium was 100 uL/well), 25 uL of 5-fold hypotonic lysis buffer (50 mM Tris-HCl, pH 7.5, containing halt protease inhibitor and PMSF with a final concentration of 1 mM) was added, and the plate was frozen at −80° C. for at least 1 h or overnight. Once the plate was taken away from the −80° C. environment, 20 uL of 0.625 M NaCl was added to each well to a final NaCl concentration of about 100 mM, and the mixture was mixed well.
(§3) 75 uL or 100 uL of sample (with duplicate wells provided) was added to two 96-well ELISA plates (ThermoFisher Scientific; Immulon 4HBX 3885) and the plates were coated with total protein lysate and incubated overnight at 4° C. 50 uL of lysate was retained for protein quantitation if necessary. The sealing of the plates must be ensured. The plates were washed twice with 300 uL of 1×PBST (PBS containing 0.05% Tween 20) per well. Each well was blocked with 300 uL of dilution (PBS+2% BSA+0.05% Tween 20), incubated for 2 h at room temperature, and washed twice with 1×PBST. Primary antibodies were diluted with a dilution solution containing 1% BSA+0.05% Tween 20. 75-100 uL of anti-H3K27Me3 antibody (CST; 9733; 50% glycerol stock, 1:1,000) or anti-total histone-3 antibody (Abcam; ab1791; 50% glycerol stock, 1:10,000) was added to each well. The plates were incubated for 90 min at room temperature or incubated overnight at 4° C. The plates were washed three times with 1×PBST. 75-100 uL of anti-Rb-IgG-HRP secondary antibody (Cell Signaling Technology; 7074) was added per well, 1:2000 diluted secondary antibody for anti-H3K 27Me3 plate and 1:6000 diluted secondary antibody for anti-histone total histone-3 plate. The plates were incubated at room temperature for 90 min. The plate assayed with anti-histone-3 antibody was used to normalize the data for the corresponding plate assayed with anti-H3K 27me3. The plates must be washed at least three times with 1×PBST after primary or secondary antibody incubation. The plates were assayed by adding 75-100 uL of 3,3′,5,5′-tetramethylbenzidine substrate (CST or ThermoFisher Scientific; TMBS) per well and incubated away from light for 30 min at 37° C. The reaction was terminated by adding 100 uL of 0.5 M H2SO4 per well. The absorbance was read at 450 nm. Curve fitting was performed using Graph Pad program.

Pfeiffer = test: Methylated lysine of histone-H3 (H3K27Me3) detection by ELISA, Pfeiffer cells; assay type: cell-based, human; conditions: 7 days treatment, H3K27Me3 normalized to total histone-3, read-out: IC50 of cell methylation, Pfeiffer
Procedure: as §1, §2, §3

Sequence of EZH2 enzyme complex (Q15910 whole entry): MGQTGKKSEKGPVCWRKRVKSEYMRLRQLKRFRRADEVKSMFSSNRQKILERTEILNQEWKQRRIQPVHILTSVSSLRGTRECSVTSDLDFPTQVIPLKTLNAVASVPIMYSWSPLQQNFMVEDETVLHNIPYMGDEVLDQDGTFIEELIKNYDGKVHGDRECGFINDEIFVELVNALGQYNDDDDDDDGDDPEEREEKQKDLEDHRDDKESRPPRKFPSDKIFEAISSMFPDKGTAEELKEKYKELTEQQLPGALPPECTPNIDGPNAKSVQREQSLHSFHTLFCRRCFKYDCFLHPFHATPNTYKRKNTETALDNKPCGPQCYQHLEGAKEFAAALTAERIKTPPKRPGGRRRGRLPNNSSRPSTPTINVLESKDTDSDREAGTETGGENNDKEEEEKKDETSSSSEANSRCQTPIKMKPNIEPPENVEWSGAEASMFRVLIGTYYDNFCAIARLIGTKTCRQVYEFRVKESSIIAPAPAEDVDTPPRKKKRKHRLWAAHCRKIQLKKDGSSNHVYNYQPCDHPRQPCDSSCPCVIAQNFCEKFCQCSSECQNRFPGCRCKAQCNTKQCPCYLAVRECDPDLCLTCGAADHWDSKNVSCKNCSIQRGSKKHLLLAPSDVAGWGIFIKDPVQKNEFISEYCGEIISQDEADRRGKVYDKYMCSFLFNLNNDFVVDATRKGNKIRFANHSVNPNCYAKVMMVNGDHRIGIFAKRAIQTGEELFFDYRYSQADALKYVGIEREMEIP
Sequence of EZH2 enzyme complex (O75530 whole entry partner): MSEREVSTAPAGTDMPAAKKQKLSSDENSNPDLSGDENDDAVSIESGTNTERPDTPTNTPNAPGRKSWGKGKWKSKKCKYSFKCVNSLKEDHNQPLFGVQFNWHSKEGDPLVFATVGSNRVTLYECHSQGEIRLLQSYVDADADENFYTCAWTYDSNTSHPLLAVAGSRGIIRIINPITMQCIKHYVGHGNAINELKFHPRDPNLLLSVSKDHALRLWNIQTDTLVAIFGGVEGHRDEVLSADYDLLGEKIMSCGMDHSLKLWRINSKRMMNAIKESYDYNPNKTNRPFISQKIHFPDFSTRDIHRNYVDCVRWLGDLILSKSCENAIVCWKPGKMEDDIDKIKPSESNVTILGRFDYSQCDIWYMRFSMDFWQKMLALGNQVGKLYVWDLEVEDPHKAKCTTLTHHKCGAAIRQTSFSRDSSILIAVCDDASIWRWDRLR
Sequence of EZH2 enzyme complex (Q15022 whole entry partner): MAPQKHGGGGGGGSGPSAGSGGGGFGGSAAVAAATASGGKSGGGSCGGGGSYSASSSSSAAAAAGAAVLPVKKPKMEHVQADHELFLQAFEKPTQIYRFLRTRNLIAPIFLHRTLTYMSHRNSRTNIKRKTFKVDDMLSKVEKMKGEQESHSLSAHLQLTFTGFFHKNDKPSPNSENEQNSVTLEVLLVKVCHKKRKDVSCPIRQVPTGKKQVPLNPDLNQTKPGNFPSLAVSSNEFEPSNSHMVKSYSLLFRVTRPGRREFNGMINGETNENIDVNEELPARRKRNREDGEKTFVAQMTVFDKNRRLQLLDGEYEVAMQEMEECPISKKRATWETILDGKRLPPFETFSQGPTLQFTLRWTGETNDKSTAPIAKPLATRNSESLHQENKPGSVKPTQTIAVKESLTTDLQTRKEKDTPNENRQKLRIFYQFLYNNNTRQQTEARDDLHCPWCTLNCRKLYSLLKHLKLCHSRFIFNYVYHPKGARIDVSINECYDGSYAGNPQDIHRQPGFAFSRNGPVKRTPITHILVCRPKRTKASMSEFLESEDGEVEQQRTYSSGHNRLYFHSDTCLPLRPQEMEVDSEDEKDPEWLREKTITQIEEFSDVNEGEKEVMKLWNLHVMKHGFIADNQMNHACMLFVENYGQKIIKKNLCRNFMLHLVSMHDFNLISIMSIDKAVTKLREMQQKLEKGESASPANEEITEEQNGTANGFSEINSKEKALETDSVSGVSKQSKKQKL

Row | SMILES | IC50 (EZH2 enzyme complex) [nM] | IC50 (WSU-DLCL2; Homo sapiens, WSUDLCL2, 168 h) [nM] | IC50 (Pfeiffer; Homo sapiens, 168 h) [nM] | IC50 (WSU-DLCL2) [nM] | IC50 (Pfeiffer) [nM]
1 | CCN(c1cc(C2CC2CN2CCC(F)CC2)cc(C(=O)NCc2c(C)cc(C)[nH]c2=O)c1C)C1CCOCC1 (stereo not drawn) [Example 79, N-((4,6-dimethyl-2-oxo-1,2-dihydropyridin-3-yl)methyl)-3-(ethyl(tetrahydro-2H-pyran-4-yl)amino)-5-(2-((4-fluoropiperidin-1-yl)methyl)cyclopropyl)-2-methylbenzamide] | 10 to 100 | 50 to 500 | < 50 |  | 
2 | CCN(c1cc(O[C@H]2C[C@H](CN3C[C@@H](C)O[C@@H](C)C3)C2)cc(C(=O)NCc2c(C)cc(C)[nH]c2=O)c1Cl)C1CCOCC1 [Example 53, 2-chloro-N-((4,6-dimethyl-2-oxo-1,2-dihydropyridin-3-yl)methyl)-5-(trans-3-((cis-2,6-dimethylmorpholinyl)methyl)cyclobutoxy)-3-(ethyl(tetrahydro-2H-pyran-4-yl)amino)benzamide] | 10 to 100 |  |  | 50 to 500 | 500 to 1000
3 | CCN(c1cc(O[C@H]2C[C@H](N3C[C@@H](C)O[C@@H](C)C3)C2)cc(C(=O)NCc2c(C)cc(C)[nH]c2=O)c1Cl)C1CCOCC1 [Example 48, 2-chloro-N-((4,6-dimethyl-2-oxo-1,2-dihydropyridin-3-yl)methyl)-5-(trans-3-(cis-2,6-dimethylmorpholinyl)cyclobutoxy)-3-(ethyl(tetrahydro-2H-pyran-4-yl)amino)benzamide] | 10 to 100 | 50 to 500 | > 1000 |  | 
4 | CCN(c1cc(O[C@H]2C[C@H](CN3C[C@@H](C)O[C@@H](C)C3)C2)cc(C(=O)NCc2c(C)cc(C)[nH]c2=O)c1C)C1CCOCC1 [Example 31, N-((4,6-dimethyl-2-oxo-1,2-dihydropyridin-3-yl)methyl)-5-(trans-3-((cis-2,6-dimethylmorpholinyl)methyl)cyclobutoxy)-3-(ethyl(tetrahydro-2H-pyran-4-yl)amino)-2-methylbenzamide] | 10 to 100 | < 50 | < 50 |  | 
5 | CCN(c1cc(O[C@H]2C[C@H](N3C[C@@H](C)O[C@@H](C)C3)C2)cc(C(=O)NCc2c(C)cc(C)[nH]c2=O)c1C)[C@@H]1C[C@@H](C)O[C@@H](C)C1 [Example 39, N-((4,6-dimethyl-2-oxo-1,2-dihydropyridin-3-yl)methyl)-5-(trans-3-(cis-2,6-dimethylmorpholinyl)cyclobutoxy)-3-((trans-2,6-dimethyltetrahydro-2H-pyran-4-yl)(ethyl)amino)-2-methylbenzamide] | 100 to 1000 | > 1000 | 500 to 1000 |  | 
6 | CCN(c1cc(C2CC2CO)cc(C(=O)NCc2c(C)cc(C)[nH]c2=O)c1C)C1CCOCC1 (stereo not drawn) [Example 71, N-((4,6-dimethyl-2-oxo-1,2-dihydropyridin-3-yl)methyl)-3-(ethyl(tetrahydro-2H-pyran-4-yl)amino)-5-(2-(hydroxymethyl)cyclopropyl)-2-methylbenzamide] | 10 to 100 | 50 to 500 | < 50 |  | 
7 | CCN(c1cc(O[C@H]2C[C@H](N3CCN(C)CC3)C2)cc(C(=O)NCc2c(C)cc(C)[nH]c2=O)c1C)C1CCOCC1 [Example 20, N-((4,6-dimethyl-2-oxo-1,2-dihydropyridin-3-yl)methyl)-3-(ethyl(tetrahydro-2H-pyran-4-yl)amino)-2-methyl-5-(trans-3-(4-methylpiperazin-1-yl)cyclobutoxy)benzamide] | 10 to 100 | 50 to 500 | < 50 |  | 
8 | CCN(c1cc(O[C@H]2C[C@H](N3CCOCC3)C2)cc(C(=O)N(C)Cc2c(C)cc(C)[nH]c2=O)c1C)C1CCOCC1 [Example 51, N-((4,6-dimethyl-2-oxo-1,2-dihydropyridin-3-yl)methyl)-3-(ethyl(tetrahydro-2H-pyran-4-yl)amino)-N,2-dimethyl-5-(trans-3-morpholinylcyclobutoxy)benzamide] | 100 to 1000 | > 1000 | > 1000 |  | 
9 | CCN(c1cc(C2CCC2)cc(C(=O)NCc2c(C)cc(C)[nH]c2=O)c1C)C1CCOCC1 [Example 15, 5-cyclobutyl-N-((4,6-dimethyl-2-oxo-1,2-dihydropyridin-3-yl)methyl)-3-(ethyl(tetrahydro-2H-pyran-4-yl)amino)-2-methylbenzamide] | 10 to 100 | 50 to 500 | < 50 |  | 
10 | CCN(c1cc(SC2CCC2)cc(C(=O)NCc2c(C)cc(C)[nH]c2=O)c1C)C1CCOCC1 [Example 8, 5-(cyclobutylthio)-N-((4,6-dimethyl-2-oxo-1,2-dihydropyridin-3-yl)methyl)-3-(ethyl(tetrahydro-2H-pyran-4-yl)amino)-2-methylbenzamide] | 10 to 100 | > 1000 | 50 to 500 |  | 
11 | CCN(c1cc(O[C@H]2C[C@@H](N3CCN(C(C)=O)CC3)C2)cc(C(=O)NCc2c(C)cc(C)[nH]c2=O)c1C)C1CCOCC1 [Example 25, cis-5-(3-(4-acetylpiperazin-1-yl)cyclobutoxy)-N-((4,6-dimethyl-2-oxo-1,2-dihydropyridin-3-yl)methyl)-3-(ethyl(tetrahydro-2H-pyran-4-yl)amino)-2-methylbenzamide] | 10 to 100 | < 50 | < 50 |  | 
12 | CCN(c1cc(C2CC2CN2CCC(F)(F)CC2)cc(C(=O)NCc2c(C)cc(C)[nH]c2=O)c1C)C1CCOCC1 (stereo not drawn) [Example 78, 5-(2-((4,4-difluoropiperidin-1-yl)methyl)cyclopropyl)-N-((4,6-dimethyl-2-oxo-1,2-dihydropyridin-3-yl)methyl)-3-(ethyl(tetrahydro-2H-pyran-4-yl)amino)-2-methylbenzamide] | 10 to 100 | 50 to 500 | < 50 |  | 
13 | CCN(c1cc(OC2CC(F)(F)C2)cc(C(=O)NCc2c(C)cc(C)[nH]c2=O)c1C)C1CCOCC1 [Example 3, 5-(3,3-difluorocyclobutoxy)-N-((4,6-dimethyl-2-oxo-1,2-dihydropyridin-3-yl)methyl)-3-(ethyl(tetrahydro-2H-pyran-4-yl)amino)-2-methylbenzamide] | 10 to 100 | 50 to 500 | < 50 |  | 
14 | CCN(c1cc(O[C@H]2C[C@H](N3CCN(C(C)=O)CC3)C2)cc(C(=O)NCc2c(C)cc(C)[nH]c2=O)c1C)C1CCOCC1 [Example 26, trans-5-(3-(4-acetylpiperazin-1-yl)cyclobutoxy)-N-((4,6-dimethyl-2-oxo-1,2-dihydropyridin-3-yl)methyl)-3-(ethyl(tetrahydro-2H-pyran-4-yl)amino)-2-methylbenzamide] | 10 to 100 | 50 to 500 | < 50 |  | 
15 | CCN(c1cc(O[C@H]2C[C@H](CN3CCOCC3)C2)cc(C(=O)NCc2c(C)cc(C)[nH]c2=O)c1C)C1CCOCC1 [Example 7, N-((4,6-dimethyl-2-oxo-1,2-dihydropyridin-3-yl)methyl)-3-(ethyl(tetrahydro-2H-pyran-4-yl)amino)-2-methyl-5-(trans-3-(morpholinylmethyl)cyclobutoxy)benzamide] | 10 to 100 | 50 to 500 | < 50 |  | 
16 | CCN(c1cc(O[C@H]2C[C@H](N3C[C@@H](C)O[C@@H](C)C3)C2)cc(C(=O)NCc2c(C)cc(C)[nH]c2=O)c1C)[C@H]1C[C@@H](C)O[C@@H](C)C1 [Example 35, N-((4,6-dimethyl-2-oxo-1,2-dihydropyridin-3-yl)methyl)-5-(trans-3-(cis-2,6-dimethylmorpholinyl)cyclobutoxy)-3-((cis-2,6-dimethyltetrahydro-2H-pyran-4-yl)(ethyl)amino)-2-methylbenzamide] | 10 to 100 | > 1000 | 50 to 500 |  | 
